System: different cancer cell lines (MCF-7, HCT-116, CaCO2)
Experiment: MTT cytotoxicity assay, single substances vs combination, different cancer cell lines
Type: cell-based
Conditions: THC + alpha-bisabolol + guaiol vs single substance, 48 h
Description: The following cell lines were used for the experiment: CaCO2 (Pharmacelsus), HCT-116 (ATCC, Cat #CCL-247), and MCF-7 (ECACC, Cat #86012803). All cell lines were maintained at 37° C., 5% CO2 and 95% humidity. The medium was replaced three times per week and the monolayer was sub-cultured in a ratio of 1:5 when the culture reaches a confluence of 80%. The specific cultivation medium for each cell line was as follows: CaCO2 cell line was cultured in DMEM (PAN-Biotech, Cat #P04-03500) supplemented with 10% FBS Good (PAN-Biotech, Cat #P40-37500) and 1% NEAA (PAN-Biotech, Cat #P08-32100), HCT-116 cell line was cultured in McCoy's A5 medium (PAN-Biotech, Cat #P04-05500) supplemented with 10% FBS Good, and MCF-7 cell line was cultured in RPMI 1640 (PAN-Biotech, Cat #P04-16500) supplemented with 10% FBS and 2 mM GlutaMAX (Gibco, Cat #35050). All cell culture media were routinely supplemented with 1% Penicillin/Streptomycin (PAN-Biotech, Cat #P06-07100).
For the cytotoxicity assay, cells were seeded into 96-well flat bottom microtiter plates at a density of 10,000 cells/well and allowed to attach to the plate for 24 hours before the start of the experiment. […]
Quantification of viable cells was performed by using commercial MTT assay kit (Cell Proliferation Kit I (MTT), Sigma, Cat #11465007001). […] The formazan crystals formed are solubilized and the resulting coloured solution is quantified.
Cells were prepared as described in Example 1.1. […] Conversion of MTT to formazan was recorded by measuring the absorbance at 570 nm with reference wavelength 650 nm by using a spectrophotometer (Spectramax Plus, Molecular Devices). […]

| Structure (SMILES) | IC50 values in combinatory treatment compared to single treatment |
| --- | --- |
| CCCCCc1cc(O)c2c(c1)OC(C)(C)[C@@H]1CCC(C)=C[C@@H]21 [THC, delta-9-tetrahydrocannabinol] | remain unchanged |
| CC(C)=CCC[C@](C)(O)[C@@H]1CC=C(C)CC1 [alpha-bisabolol] | remarkably reduced |
| C[C@H]1CC[C@@H](C(C)(C)O)CC2=C1CC[C@@H]2C [guaiol] | remarkably reduced |
